≈ marks a conversion by molar mass, not a printed value. Read-outs that look alike come from different tables or passages of the source.
What was measured:
[1] = Cytotoxicity evaluation, MTT assay; format: cell-based; settings: mouse, J774A.1 macrophage cells, mean of three independent experiments, read-out: J774A1 CC50
Experimental: After incubation for 24 h, 100 µL of medium with various concentrations of jacoumaric acid, carasolic acid, and appropriate controls (doxorubicin and amphotericin B, purchased from Sigma-Aldrich) were added and the plates were incubated for 72 h at 37 °C and 5% CO2. Each 96-well plate was then examined under a microscope to detect possible precipitate formation before the medium was aspirated from the well. 100 µL of MTT solution (0.5mg/mL in DMEM) was then added to each well. Cells were incubated for 2 h at 37 °C and 5% CO2. Then, the MTT solution was removed and DMSO (100 µL/well) was added to dissolve the resulting formazan crystals. Plates were shaken vigorously (300 rpm) for 5 min. The absorbance was measured at 570 nm with a microplate spectrophotometer (Eon Bio Tek, Winooski, VT, USA). DMSO was used as blank. […] (San Diego, CA, USA). CC50 values represent the mean value calculated from three independent experiments.

L. infantum amastigotes = experiment: Intracellular ROS generation, H2DCFDA assay; format: cell-based; settings: axenic amastigotes treated 24 h at IC50 and IC90 concentrations
Experimental: The cells were then centrifuged, washed with PBS, resuspended in PBS, and incubated for 30 min in the dark with 10 µM H2DCFDA at 37 °C. ROS were measured as an increase in fluorescence caused by the conversion of non-fluorescent dye to highly fluorescence […] (excitation wavelength 490 nm, emission wavelength 525 nm) in a fluorescence microplate reader (SAFAS Xenius XM, Monaco, France).

[2] = tested on: L. infantum axenic amastigotes; experiment: Antileishmanial activity on axenic amastigotes (luciferase assay); format: cell-based, L. infantum strain MHOM/MA/67/ITMAP-263; settings: for Axenic Amastigotes IC50 / IC50: L. infantum axenic amastigotes, 48 h, 37 °C; for IC50 / IC90: Leishmania infantum; for IC90: L. infantum amastigotes, concentration used in the ROS assay; for IC50 when associated with mannitol, compared with IC50 alone: mannitol 50 µM, axenic amastigotes
[3] = tested on: L. infantum promastigotes; experiment: Antileishmanial activity on promastigotes (luciferase assay); format: cell-based, L. infantum strain MHOM/MA/67/ITMAP-263; settings: Leishmania infantum, 72 h, 24 °C, mean of three independent experiments
Pyricularia pryzae = settings: cited from earlier work
L. infantum amastigote = tested on: L. infantum amastigote; set-up: method as in PMID 29201107; settings: cited from earlier work
[4] = tested on: five human cancer cell lines (HCT116, CCRFCEM, DU145, Huh7, and A549); set-up: method as in PMID 28578580; settings: read-out: IC50, antitumor activity; cited from earlier work
Leishmania amazonensis = tested on: Leishmania amazonensis; set-up: method as in PMID 31269109; settings: cited from earlier work
Leishmania [5] = tested on: Leishmania; set-up: method as in PMID 31571946; settings: cited from earlier work
Leishmania [6] = tested on: Leishmania; set-up: method as in PMID 15070160; settings: cited from earlier work

CC1CCC2(C(=O)O)CCC3(C)C(=CCC4C5(C)CC(O)C(OC(=O)/C=C/c6ccc(O)cc6)C(C)(C)C5CCC43C)C2C1C (stereo not drawn) [Jacoumaric acid (2), Jacoumaric acid]
CC50 at 72 h [1]: 12.9 ± 2.5 µg/mL (≈ 20.8 µM) | Production of ROS (H2DCFDA fluorescence) compared to the control (L. infantum amastigotes): significantly decreased | Axenic Amastigotes IC50 [2]: 1.32 ± 0.59 µg/mL | IC50 [2]: 1.32 ± 0.59 µg/mL (≈ 2.13 µM) | IC90 [2]: 1.9 µg/mL (≈ 3.07 µM) | IC50 when associated with mannitol, compared with IC50 alone [2]: no significant differences | IC50 [3]: > 50 µg/mL

CC1(C)CCC2(C(=O)O)CCC3(C)C(=CCC4C5(C)CC(O)C(O)C(C)(C(=O)O)C5CCC43C)C2C1 (stereo not drawn) [Medicagenic acid (6), Medicagenic acid]
minimum fungicidal concentration (MFC) (Pyricularia pryzae): 30 µg/mL (≈ 59.7 µM) | minimum inhibitory concentration (MIC) (Pyricularia pryzae): 10 µg/mL (≈ 19.9 µM) | IC50 [2]: > 50 µg/mL | IC50 [3]: > 50 µg/mL

CC1(C)CC[C@]2(C(=O)O)CC[C@]3(C)C(=CC[C@@H]4[C@@]5(C)CC[C@H](O)C(C)(C)[C@@H]5CC[C@]43C)[C@@H]2C1 [oleanoic acid]
IC50 on L. infantum amastigote (L. infantum amastigote): 2.91 ± 0.066 µg/mL (≈ 6.37 µM)

C/C1=C\CC(C)(C)/C=C/CC2(C)Oc3c(C=O)c(O)c(C=O)c(O)c3C(c3ccccc3)C2CC1 (stereo not drawn) [Guajadial B (5), Guajadial B]
IC50 [4]: 150 nM | IC50 [2]: > 50 µg/mL | IC50 [3]: > 50 µg/mL

C=C1CC/C=C(\C)CC[C@@H]2[C@@H]1CC2(C)C [E-caryophyllene]
IC50, antileishmanial (Leishmania amazonensis): 10.7 ± 0.6 µg/mL (≈ 52.4 µM)

C[C@@H]1[C@H](O)[C@@H](C)/C=C/C=C/C=C/C=C/C=C/C=C/C=C/[C@H](O[C@@H]2O[C@H](C)[C@@H](O)[C@H](N)[C@@H]2O)C[C@@H]2O[C@](O)(C[C@@H](O)C[C@@H](O)[C@H](O)CC[C@@H](O)C[C@@H](O)CC(=O)O[C@H]1C)C[C@H](O)[C@H]2C(=O)O [Amphotericin B, reference compound]
CC50 at 72 h [1]: 5.79 ± 0.65 µg/mL (≈ 6.27 µM) | IC50 [2]: 0.09 ± 0.04 µg/mL (≈ 0.0974 µM) | IC50 [3]: 0.09 ± 0.01 µg/mL (≈ 0.0974 µM)

CC1(C)CC[C@]2(C(=O)O)CC[C@]3(C)C(=CC[C@@H]4[C@@]5(C)C[C@@H](O)[C@H](O)C(C)(C)[C@@H]5CC[C@]43C)[C@@H]2C1 [maslinic, maslinic acid]
IC50 on L. infantum amastigote (L. infantum amastigote): 0.99 ± 0.09 µg/mL (≈ 2.09 µM)

COc1cccc2c1C(=O)c1c(O)c3c(c(O)c1C2=O)C[C@@](O)(C(=O)CO)C[C@@H]3O[C@H]1C[C@H](N)[C@H](O)[C@H](C)O1 [Doxorubicin, reference compound]
CC50 at 72 h [1]: 0.04 ± 0.004 µg/mL (≈ 0.0736 µM)

spergulin-A
IC50, antileishmanial (Leishmania [5]): 6.22 µg/mL

C[C@H]1[C@H](C)CC[C@]2(C(=O)O)CC[C@]3(C)C(=CC[C@@H]4[C@@]5(C)C[C@@H](O)[C@H](O)C(C)(C)[C@@H]5CC[C@]43C)[C@H]12 [Corosolic acid (1), Corosolic acid (2α-hydroxyursolic acid)]
CC50 at 72 h [1]: 5.77 ± 0.5 µg/mL (≈ 12.2 µM) | Production of ROS (H2DCFDA fluorescence) compared to the control (L. infantum amastigotes): significantly decreased | Axenic Amastigotes IC50 [2]: 1.01 ± 0.06 µg/mL | IC50 [2]: 1.06 µg/mL (≈ 2.24 µM) | IC90 [2]: 1.43 µg/mL (≈ 3.03 µM) | IC50 when associated with mannitol, compared with IC50 alone [2]: no significant differences | IC50 [3]: 18.4 ± 1.2 µg/mL (≈ 39 µM)

C[C@H]1[C@H](C)CC[C@]2(C(=O)O)CC[C@]3(C)C(=CC[C@@H]4[C@@]5(C)CC[C@H](O)C(C)(C)[C@@H]5CC[C@]43C)[C@H]12 [ursolic acid]
IC50, antileishmanial (Leishmania [6]): 27 µg/mL (≈ 59.1 µM)
